Data as given in PubChem BioAssay AID1963831 (Molecular Pharmacology Branch, DTP, NCI, 2024).

System: 889142-216-R-J1-PDC complex spheroid viability
Assay: Anticancer human tumor 889142-216-R-J1-PDC patient-derived bladder carcinoma cell line growth inhibition [POLQ]
Settings: for IC50: curve of first compound; for viability, T/C: stronger effect = lower value
Outline: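 Complex spheroid viability model combining PDC tumour cells with endothelial (HUVEC) and MSC stromal cells. Novobiocin, ART-558 or RP6685 were tested singly and in combination with standard and investigational anticancer drugs. Each was titrated in half-log steps from near clinical Cmax, or from 10 microM where Cmax was unknown.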

[1] = second compound 0.0316 µM, first compound 0.0316 µM
[2] = second compound 0.0316 µM, first compound 0.1 µM
[3] = second compound 0.0316 µM, first compound 0.316 µM
[4] = second compound 0.0316 µM, first compound 1 µM
[5] = second compound 0.1 µM, first compound 0.0316 µM
[6] = second compound 0.1 µM, first compound 0.1 µM
[7] = second compound 0.1 µM, first compound 0.316 µM
[8] = second compound 0.1 µM, first compound 1 µM
[9] = second compound 0.316 µM, first compound 0.0316 µM
[10] = second compound 0.316 µM, first compound 0.1 µM
[11] = second compound 0.316 µM, first compound 0.316 µM
[12] = second compound 0.316 µM, first compound 1 µM
[13] = second compound 1 µM, first compound 0.0316 µM
[14] = second compound 1 µM, first compound 0.1 µM
[15] = second compound 1 µM, first compound 0.316 µM
[16] = second compound 1 µM, first compound 1 µM
[17] = second compound 3.16 µM, first compound 0.0316 µM
[18] = second compound 3.16 µM, first compound 0.1 µM
[19] = second compound 3.16 µM, first compound 0.316 µM
[20] = second compound 3.16 µM, first compound 1 µM
[21] = second compound 10 µM, first compound 0.0316 µM
[22] = second compound 10 µM, first compound 0.1 µM
[23] = second compound 10 µM, first compound 0.316 µM
[24] = second compound 10 µM, first compound 1 µM
[25] = second compound 0.0316 µM, first compound 3.16 µM
[26] = second compound 0.0316 µM, first compound 10 µM
[27] = second compound 0.1 µM, first compound 3.16 µM
[28] = second compound 0.1 µM, first compound 10 µM
[29] = second compound 0.316 µM, first compound 3.16 µM
[30] = second compound 0.316 µM, first compound 10 µM
[31] = second compound 1 µM, first compound 3.16 µM
[32] = second compound 1 µM, first compound 10 µM
[33] = second compound 3.16 µM, first compound 3.16 µM
[34] = second compound 3.16 µM, first compound 10 µM
[35] = second compound 10 µM, first compound 3.16 µM
[36] = second compound 10 µM, first compound 10 µM
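Also: spheroids exposed to compounds for seven days.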
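For viability, T/C in this document: 100% = DMSO vehicle control viability.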

Structure (SMILES): C=CCn1c(=O)c2cnc(Nc3ccc(N4CCN(C)CC4)cc3)nc2n1-c1cccc(C(C)(C)O)n1 + Cc1cccc(N(C)C(=O)C2C(O)CCN2c2nc(C)cc(C(F)(F)F)c2C#N)c1
- IC50 (second compound 0.0316 µM): > 1 µM
- IC50 (second compound 0.1 µM): > 1 µM
- IC50 (second compound 0.316 µM): > 1 µM
- IC50 (second compound 1 µM): > 1 µM
- IC50 (second compound 3.16 µM): > 1 µM
- IC50 (second compound 10 µM): > 1 µM
- viability, T/C (second compound 0.0316 µM, first compound 0.00316 µM): 113%
- viability, T/C (second compound 0.0316 µM, first compound 0.01 µM): 93.8%
- viability, T/C [1]: 103%
- viability, T/C [2]: 101%
- viability, T/C [3]: 90%
- viability, T/C [4]: 55.5%
- viability, T/C (second compound 0.1 µM, first compound 0.00316 µM): 99.3%
- viability, T/C (second compound 0.1 µM, first compound 0.01 µM): 115%
- viability, T/C [5]: 104%
- viability, T/C [6]: 90.1%
- viability, T/C [7]: 106%
- viability, T/C [8]: 54.4%
- viability, T/C (second compound 0.316 µM, first compound 0.00316 µM): 129%
- viability, T/C (second compound 0.316 µM, first compound 0.01 µM): 89.5%
- viability, T/C [9]: 99.2%
- viability, T/C [10]: 95.8%
- viability, T/C [11]: 75%
- viability, T/C [12]: 69.3%
- viability, T/C (second compound 1 µM, first compound 0.00316 µM): 118%
- viability, T/C (second compound 1 µM, first compound 0.01 µM): 84.4%
- viability, T/C [13]: 88.9%
- viability, T/C [14]: 85.2%
- viability, T/C [15]: 90.5%
- viability, T/C [16]: 61.8%
- viability, T/C (second compound 3.16 µM, first compound 0.00316 µM): 117%
- viability, T/C (second compound 3.16 µM, first compound 0.01 µM): 113%
- viability, T/C [17]: 78.2%
- viability, T/C [18]: 111%
- viability, T/C [19]: 80.8%
- viability, T/C [20]: 59.8%
- viability, T/C (second compound 10 µM, first compound 0.00316 µM): 108%
- viability, T/C (second compound 10 µM, first compound 0.01 µM): 127%
- viability, T/C [21]: 116%
- viability, T/C [22]: 77%
- viability, T/C [23]: 70.2%
- viability, T/C [24]: 54.7%

Structure (SMILES): CC1COCCN1c1cc(-c2ccnn2C)c2ccnc(-c3ccn[nH]3)c2n1 (stereo unspecified) + Cc1cccc(N(C)C(=O)C2C(O)CCN2c2nc(C)cc(C(F)(F)F)c2C#N)c1
- IC50 (second compound 0.0316 µM): 0.215 µM
- IC50 (second compound 0.1 µM): 0.144 µM
- IC50 (second compound 0.316 µM): 0.162 µM
- IC50 (second compound 1 µM): 0.264 µM
- IC50 (second compound 3.16 µM): 0.242 µM
- IC50 (second compound 10 µM): 0.154 µM
- viability, T/C [1]: 84.3%
- viability, T/C [2]: 52.8%
- viability, T/C [3]: 50.3%
- viability, T/C [4]: 37.8%
- viability, T/C [25]: 31.6%
- viability, T/C [26]: 25.9%
- viability, T/C [5]: 67.9%
- viability, T/C [6]: 55%
- viability, T/C [7]: 40.4%
- viability, T/C [8]: 34.7%
- viability, T/C [27]: 32.2%
- viability, T/C [28]: 25.8%
- viability, T/C [9]: 79.9%
- viability, T/C [10]: 54%
- viability, T/C [11]: 43.4%
- viability, T/C [12]: 33.9%
- viability, T/C [29]: 29.4%
- viability, T/C [30]: 25.8%
- viability, T/C [13]: 74.3%
- viability, T/C [14]: 59.2%
- viability, T/C [15]: 45.9%
- viability, T/C [16]: 41.7%
- viability, T/C [31]: 32.3%
- viability, T/C [32]: 26.9%
- viability, T/C [17]: 76.3%
- viability, T/C [18]: 56.4%
- viability, T/C [19]: 42.5%
- viability, T/C [20]: 48.9%
- viability, T/C [33]: 32.2%
- viability, T/C [34]: 27.9%
- viability, T/C [21]: 57.4%
- viability, T/C [22]: 56.5%
- viability, T/C [23]: 40.8%
- viability, T/C [24]: 34.7%
- viability, T/C [35]: 30.6%
- viability, T/C [36]: 26.9%

Structure (SMILES): CC1COCCN1c1cc(C2(S(C)(=N)=O)CC2)nc(-c2ccnc3[nH]ccc23)n1 (stereo unspecified) + Cc1cccc(N(C)C(=O)C2C(O)CCN2c2nc(C)cc(C(F)(F)F)c2C#N)c1
- IC50 (second compound 0.0316 µM): 7.04 µM
- IC50 (second compound 0.1 µM): 10 µM
- IC50 (second compound 0.316 µM): 3.02 µM
- IC50 (second compound 1 µM): 2.27 µM
- IC50 (second compound 3.16 µM): 1.4 µM
- IC50 (second compound 10 µM): 0.966 µM
- viability, T/C [1]: 109%
- viability, T/C [2]: 97.9%
- viability, T/C [3]: 64.5%
- viability, T/C [4]: 76%
- viability, T/C [25]: 49.4%
- viability, T/C [26]: 48.4%
- viability, T/C [5]: 92.9%
- viability, T/C [6]: 128%
- viability, T/C [7]: 82%
- viability, T/C [8]: 58.1%
- viability, T/C [27]: 49.5%
- viability, T/C [28]: 45.8%
- viability, T/C [9]: 128%
- viability, T/C [10]: 97%
- viability, T/C [11]: 85%
- viability, T/C [12]: 65.4%
- viability, T/C [29]: 43.7%
- viability, T/C [30]: 41.8%
- viability, T/C [13]: 111%
- viability, T/C [14]: 106%
- viability, T/C [15]: 70.7%
- viability, T/C [16]: 60.1%
- viability, T/C [31]: 50%
- viability, T/C [32]: 41.5%
- viability, T/C [17]: 92.4%
- viability, T/C [18]: 94.4%
- viability, T/C [19]: 72.3%
- viability, T/C [20]: 53.9%
- viability, T/C [33]: 44.5%
- viability, T/C [34]: 41.5%
- viability, T/C [21]: 85.6%
- viability, T/C [22]: 94.6%
- viability, T/C [23]: 89.4%
- viability, T/C [24]: 48.8%
- viability, T/C [35]: 50.1%
- viability, T/C [36]: 38.8%
